Measurements: PubChem BioAssay (NCI)
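Tested at 5 concentrations; 48 h exposure; 96-well plates; endpoints linearly interpolated, else capped at highest concentration. Definition used: TGI = concentration required for complete inhibition of growth.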

Key:
Test in all cases: DTP human tumour cell line panel, 48 h
XF 498 CNS = system: XF 498 CNS
SK-MEL-28 melanoma = system: SK-MEL-28 melanoma
DLD-1 colon = system: DLD-1 colon
U251 CNS = system: U251 CNS
HOP-62 NSCLC = system: HOP-62 NSCLC
DMS 273 small cell lung = system: DMS 273 small cell lung
HCT-116 colon = system: HCT-116 colon
SNB-78 CNS = system: SNB-78 CNS
SK-OV-3 ovarian = system: SK-OV-3 ovarian
KM20L2 colon = system: KM20L2 colon
SF-539 CNS = system: SF-539 CNS
HOP-18 NSCLC = system: HOP-18 NSCLC
MOLT-4 leukemia = system: MOLT-4 leukemia
LXFL 529 NSCLC = system: LXFL 529 NSCLC
SNB-75 CNS = system: SNB-75 CNS

Compound: COc1cc(CO)cc2c1[nH]c1ccccc12
- TGI (XF 498 CNS): > 25 µM
- TGI (SK-MEL-28 melanoma): > 25 µM
- TGI (DLD-1 colon): > 25 µM
- TGI (U251 CNS): > 25 µM
- TGI (HOP-62 NSCLC): > 25 µM
- TGI (DMS 273 small cell lung): > 25 µM
- TGI (HCT-116 colon): > 25 µM
- TGI (SNB-78 CNS): > 25 µM
- TGI (SK-OV-3 ovarian): > 25 µM
- TGI (KM20L2 colon): > 25 µM
- TGI (SF-539 CNS): > 25 µM
- TGI (HOP-18 NSCLC): > 25 µM
- TGI (MOLT-4 leukemia): > 25 µM
- TGI (LXFL 529 NSCLC): > 25 µM

Compound: O=C(c1nc2ccc(Cl)cc2[nH]c1=O)C(O)c1cccc([N+](=O)[O-])c1 (centres undefined)
- TGI (XF 498 CNS): > 100 µM
- TGI (SK-MEL-28 melanoma): 61.5 µM
- TGI (DLD-1 colon): > 100 µM
- TGI (U251 CNS): > 100 µM
- TGI (HOP-62 NSCLC): > 100 µM
- TGI (DMS 273 small cell lung): > 100 µM
- TGI (HCT-116 colon): > 100 µM
- TGI (SNB-75 CNS): > 100 µM
- TGI (SNB-78 CNS): > 100 µM
- TGI (SK-OV-3 ovarian): > 100 µM
- TGI (KM20L2 colon): > 100 µM
- TGI (SF-539 CNS): > 100 µM
- TGI (HOP-18 NSCLC): > 100 µM
- TGI (MOLT-4 leukemia): > 100 µM
- TGI (LXFL 529 NSCLC): > 100 µM

Compound: CC(=O)OCc1ncccc1C(OC(C)=O)OC(C)=O
- TGI (XF 498 CNS): > 100 µM
- TGI (SK-MEL-28 melanoma): > 100 µM
- TGI (DLD-1 colon): > 100 µM
- TGI (U251 CNS): > 100 µM
- TGI (HOP-62 NSCLC): > 100 µM
- TGI (DMS 273 small cell lung): > 100 µM
- TGI (HCT-116 colon): > 100 µM
- TGI (SNB-75 CNS): > 100 µM
- TGI (SNB-78 CNS): > 100 µM
- TGI (SK-OV-3 ovarian): > 100 µM
- TGI (KM20L2 colon): > 100 µM
- TGI (SF-539 CNS): > 100 µM
- TGI (HOP-18 NSCLC): > 100 µM
- TGI (MOLT-4 leukemia): > 100 µM
- TGI (LXFL 529 NSCLC): > 100 µM

Compound: CN(C)CCSC(=Nc1ccccc1)n1cccc1
- TGI (XF 498 CNS): > 100 µM
- TGI (SK-MEL-28 melanoma): > 100 µM
- TGI (DLD-1 colon): > 100 µM
- TGI (U251 CNS): > 100 µM
- TGI (HOP-62 NSCLC): > 100 µM
- TGI (DMS 273 small cell lung): > 100 µM
- TGI (HCT-116 colon): > 100 µM
- TGI (SNB-75 CNS): 96.4 µM
- TGI (SNB-78 CNS): 76.9 µM
- TGI (SK-OV-3 ovarian): > 100 µM
- TGI (KM20L2 colon): > 100 µM
- TGI (SF-539 CNS): > 100 µM
- TGI (HOP-18 NSCLC): > 100 µM
- TGI (MOLT-4 leukemia): > 100 µM
- TGI (LXFL 529 NSCLC): > 100 µM

Compound: C[C@@H]1C[C@@H]2C(=O)N(c3ccccc3)C(=O)[C@@H]2c2[nH]c3ccc(Br)cc3c21
- TGI (XF 498 CNS): 81.3 µM
- TGI (SK-MEL-28 melanoma): > 100 µM
- TGI (DLD-1 colon): > 100 µM
- TGI (U251 CNS): 38.8 µM
- TGI (HOP-62 NSCLC): 47.6 µM
- TGI (DMS 273 small cell lung): > 100 µM
- TGI (HCT-116 colon): > 100 µM
- TGI (SNB-75 CNS): 41.9 µM
- TGI (SNB-78 CNS): 71 µM
- TGI (SK-OV-3 ovarian): 44.5 µM
- TGI (KM20L2 colon): > 100 µM
- TGI (SF-539 CNS): > 100 µM
- TGI (HOP-18 NSCLC): 62.4 µM
- TGI (MOLT-4 leukemia): > 100 µM
- TGI (LXFL 529 NSCLC): > 100 µM
